pIC50: −log10 of the molar value.
biological target: T1, human SK3 channel (hKCa2.3) (Homo sapiens, UniProt Q9UGI6); test: Automated patch clamping (QPatch 16 HT whole-cell recordings); format: cell-based; conditions: HEK-293 cells stably expressing hKCa2.3; currents measured at −80 mV; normalized to N-methyl bicuculline; read-out: IC50 in the Automated patch clamping assay (SK3 channel inhibition)
T1 construct: expressed in transfected cells
Description: Automated whole cell patch-clamp recordings were performed using a QPatch 16 HT system and single-hole Qplates (Sophion, Denmark) on HEK-293 cells stably expressing the human SK3 channel (hKCa2.3). Cells were cultured and prepared for experiments using normal cell culturing procedures. A total of 4-5 million cells were used per experiment. The Qpatch automatically generates giga sealing, whole-cell formation, compound application and recording of current. hKCa2.3 currents were recorded in symmetrical K^+ solutions. The intracellular/pipette solution contained 154 mM KCl, 10 mM HEPES and 10 mM EGTA. CaCl2 is added to give calculated free concentrations of Ca^2+ of 0.4 μM and MgCl2 is added to give a free concentration of 1 mM. In order to maintain a total [K^+] of 156 mM (corresponding to the concentration in the extracellular ringer) a fixed amount of KOH (15 mM) is added, thereafter pH is adjusted with HCl to pH=7.2. Expected osmolarity: 275 mOsm. Sucrose was added to a final osmolarity around 295 mosm. The extracellular solution consisted of (in mM): CaCl2 0.1, MgCl2 3, KCl 150, HEPES 10 and glucose 10, pH=7.4 adjusted with KOH. Osmolarity between 285-295 mosm. The cells were held at 0 mV and hKCa2.3 currents were elicited by a linear voltage ramp from −80 mV to +80 mV (200 ms in duration) applied every 5th second.
The compound application protocol consisted of 12 recording periods lasting 200 s: 1) Baseline recordings in extracellular solution; 2) Application of the positive control N-methyl bicuculline (100 μM), which is characterized by full efficacy, fast on- and off-rate; 3-4) Wash-out; 5-10) Increasing concentrations of test compound to establish an IC50 value; 11-12) Wash-out; 13) positive control with compound NS8593 (N-[(1R)-1,2,3,4-tetrahydro-1-naphthalenyl]-1H-benzimidazol-2-amine) (1 μM) or with N-methyl bicuculline (100 μM). Data were sampled at 10 kHz, 4th order Bessel filter, cut-off frequency 3 kHz. Currents were compensated for run-down. Potency was quantified as the concentration needed to inhibit half of the SK channel activity and reported as an IC50 value.
All effects of compounds of the present invention as tested were normalized to the observed inhibitory effect of N-methyl bicuculline. Currents were measured at −80 mV.

Compound | pIC50
CC(CO)(Nc1nc2c(Cn3ccoc3=N)cccc2[nH]1)c1cccc(OC(F)(F)F)c1 (single isomer, unassigned; (+)) [Example 27a, (+)-2-({4-[(2-imino-2,3-dihydro-1,3-oxazol-3-yl)methyl]-1H-1,3-benzodiazol-2-yl}amino)-2-[3-(trifluoromethoxy)phenyl]propan-1-ol] | > 6.00
CC(CO)(Nc1nc2c(Cn3ccoc3=N)cccc2[nH]1)c1cccc(Cl)c1F (single isomer, unassigned; (+)) [Example 41b, (+)-2-(3-chloro-2-fluorophenyl)-2-({4-[(2-imino-2,3-dihydro-1,3-oxazol-3-yl)methyl]-1H-1,3-benzodiazol-2-yl}amino)propan-1-ol] | > 4.52
CC(CO)(Nc1nc2c(CNc3ncco3)cccc2[nH]1)c1cccc(Cl)c1F (single isomer, unassigned; (+)) [Example 42a, (+)-2-(3-chloro-2-fluorophenyl)-2-[(4-{[(1,3-oxazol-2-yl)amino]methyl}-1H-1,3-benzodiazol-2-yl)amino]propan-1-ol] | > 4.52
CC(CO)(Nc1nc2c(Cn3ccoc3=N)cccc2[nH]1)c1cc(F)cc(Cl)c1 (single isomer, unassigned; (+)) [Example 45b, (+)-2-(3-chloro-5-fluorophenyl)-2-({4-[(2-imino-2,3-dihydro-1,3-oxazol-3-yl)methyl]-1H-1,3-benzodiazol-2-yl}amino)propan-1-ol] | > 4.52
CC(CO)(Nc1nc2c(Cn3ccoc3=N)cccc2[nH]1)c1cc(Cl)ccc1F (single isomer, unassigned; (+)) [Example 47b, (+)-2-(5-chloro-2-fluorophenyl)-2-({4-[(2-imino-2,3-dihydro-1,3-oxazol-3-yl)methyl]-1H-1,3-benzodiazol-2-yl}amino)propan-1-ol] | > 4.52
CC(CO)(Nc1nc2c(CNc3ncco3)cccc2[nH]1)c1cc(Cl)ccc1F (single isomer, unassigned; (+)) [Example 48a, (+)-2-(5-chloro-2-fluorophenyl)-2-[(4-{[(1,3-oxazol-2-yl)amino]methyl}-1H-1,3-benzodiazol-2-yl)amino]propan-1-ol] | > 4.52
CC(CO)(Nc1nc2c(CNc3ccon3)cccc2[nH]1)c1cc(Cl)ccc1F (single isomer, unassigned; (+)) [Example 49a, (+)-2-(5-chloro-2-fluorophenyl)-2-[(4-{[(1,2-oxazol-3-yl)amino]methyl}-1H-1,3-benzodiazol-2-yl)amino]propan-1-ol] | > 4.52
CC(CO)(Nc1nc2c(Cn3ccoc3=N)cccc2[nH]1)c1cccc(Cl)c1 (single isomer, unassigned; (-)) [Example 3a, (−)-2-(3-chlorophenyl)-2-({4-[(2-imino-2,3-dihydro-1,3-oxazol-3-yl)methyl]-1H-1,3-benzodiazol-2-yl}amino)propan-1-ol] | > 6.00
CC(CO)(Nc1nc2c(Cn3ccoc3=N)cccc2[nH]1)c1ccc(F)c(Cl)c1 (single isomer, unassigned; (-)) [Example 8a, (−)-2-(3-chloro-4-fluorophenyl)-2-({4-[(2-imino-2,3-dihydro-1,3-oxazol-3-yl)methyl]-1H-1,3-benzodiazol-2-yl}amino)propan-1-ol] | > 6.00
Cc1cc(NCc2cccc3[nH]c(NC(C)(CO)c4ccc(F)c(Cl)c4)nc23)no1 (single isomer, unassigned; (-)) [Example 12a, (−)-2-(3-chloro-4-fluorophenyl)-2-((4-(((5-methylisoxazol-3-yl)amino)methyl)-1H-benzo[d]imidazol-2-yl)amino)propan-1-ol] | > 6.00
Cc1coc(=N)n1Cc1cccc2[nH]c(NC(C)(CO)c3ccc(F)c(Cl)c3)nc12 (single isomer, unassigned; (-)) [Example 13a, (−)-2-(3-chloro-4-fluorophenyl)-2-({4-[(2-imino-4-methyl-2,3-dihydro-1,3-oxazol-3-yl)methyl]-1H-1,3-benzodiazol-2-yl}amino)propan-1-ol] | > 6.00
CC(CO)(Nc1nc2c(Cn3ccoc3=N)cccc2[nH]1)c1cccc(C(F)(F)F)c1 (single isomer, unassigned; (-)) [Example 18a, (−)-2-({4-[(2-imino-2,3-dihydro-1,3-oxazol-3-yl)methyl]-1H-1,3-benzodiazol-2-yl}amino)-2-[3-(trifluoromethyl)-phenyl]propan-1-ol] | > 6.00
Cc1coc(=N)n1Cc1cccc2[nH]c(NC(C)(CO)c3cccc(C(F)(F)F)c3)nc12 (single isomer, unassigned; (-)) [Example 23a, (−)-2-({4-[(2-imino-4-methyl-2,3-dihydro-1,3-oxazol-3-yl)methyl]-1H-1,3-benzodiazol-2-yl}amino)-2-[3-(trifluoromethyl)phenyl]propan-1-ol] | > 6.00
Cc1cn(Cc2cccc3[nH]c(NC(C)(CO)c4cccc(OC(F)(F)F)c4)nc23)c(=N)o1 (single isomer, unassigned; (-)) [Example 30a, (−)-2-({4-[(2-imino-5-methyl-2,3-dihydro-1,3-oxazol-3-yl)methyl]-1H-1,3-benzodiazol-2-yl}amino)-2-[3-(trifluoromethoxy)-phenyl]propan-1-ol] | > 6.00
CC(CO)(Nc1nc2c(Cn3ccsc3=N)cccc2[nH]1)c1ccc(F)c(Cl)c1 (single isomer, unassigned; (-)) [Example 32a, (−)-2-(3-chloro-4-fluorophenyl)-2-({4-[(2-imino-2,3-dihydro-1,3-thiazol-3-yl)methyl]-1H-1,3-benzodiazol-2-yl}amino)propan-1-ol] | > 6.00
CC(CO)(Nc1nc2c(CNc3ncco3)cccc2[nH]1)c1ccc(Cl)c(F)c1 (single isomer, unassigned; (-)) [Example 40a, (−)-2-(4-chloro-3-fluorophenyl)-2-[(4-{[(1,3-oxazol-2-yl)amino]methyl}-1H-1,3-benzodiazol-2-yl)amino]propan-1-ol] | > 4.52
CC(CO)(Nc1nc2c(Cn3ccoc3=N)cccc2[nH]1)c1cccc(Cl)c1F (single isomer, unassigned; (-)) [Example 41a, (−)-2-(3-chloro-2-fluorophenyl)-2-({4-[(2-imino-2,3-dihydro-1,3-oxazol-3-yl)methyl]-1H-1,3-benzodiazol-2-yl}amino)propan-1-ol] | > 6.00
CC(CO)(Nc1nc2c(CNc3ccon3)cccc2[nH]1)c1cc(F)cc(Cl)c1 (single isomer, unassigned; (-)) [Example 46a, (−)-2-(3-chloro-5-fluorophenyl)-2-[(4-{[(1,2-oxazol-3-yl)amino]methyl}-1H-1,3-benzodiazol-2-yl)amino]propan-1-ol] | > 4.52
N=c1occn1Cc1cccc2[nH]c(NC3(c4cccc(Cl)c4)CC3)nc12 [Example 1, N-[1-(3-chlorophenyl)cyclopropyl]-4-[(2-imino-2,3-dihydro-1,3-oxazol-3-yl)methyl]-1H-1,3-benzodiazol-2-amine] | > 4.52
CC(C)(Nc1nc2c(Cn3ccoc3=N)cccc2[nH]1)c1cccc(Cl)c1 [Example 2, N-[2-(3-chlorophenyl)propan-2-yl]-4-[(2-imino-2,3-dihydro-1,3-oxazol-3-yl)methyl]-1H-1,3-benzodiazol-2-amine] | > 6.00
CC(CO)(Nc1nc2c(Cn3ccoc3=N)cccc2[nH]1)c1cccc(Cl)c1 (stereo not shown) [Example 3, 2-(3-chlorophenyl)-2-({4-[(2-imino-2,3-dihydro-1,3-oxazol-3-yl)methyl]-1H-1,3-benzodiazol-2-yl}amino)propan-1-ol] | > 6.00
CC(Nc1nc2c(Cn3ccoc3=N)cccc2[nH]1)c1cccc(C(F)(F)F)c1 (stereo not shown) [Example 4, 4-[(2-imino-2,3-dihydro-1,3-oxazol-3-yl)methyl]-N-{1-[3-(trifluoromethyl)phenyl]ethyl}-1H-1,3-benzodiazol-2-amine] | > 6.00
Cc1coc(=N)n1Cc1cccc2[nH]c(NC(C)(CO)c3cccc(Cl)c3)nc12 (stereo not shown) [Example 5, 2-(3-chlorophenyl)-2-({4-[(2-imino-4-methyl-2,3-dihydro-1,3-oxazol-3-yl)methyl]-1H-1,3-benzodiazol-2-yl}amino)propan-1-ol] | > 6.00
COCC(C)(Nc1nc2c(Cn3ccoc3=N)cccc2[nH]1)c1cccc(Cl)c1 (stereo not shown) [Example 6, N-[2-(3-chlorophenyl)-1-methoxypropan-2-yl]-4-[(2-imino-2,3-dihydro-1,3-oxazol-3-yl)methyl]-1H-1,3-benzodiazol-2-amine] | > 4.52
CC(C)(Nc1nc2c(Cn3ccoc3=N)cccc2[nH]1)c1cccc(C(F)(F)F)c1 [Example 7, 4-[(2-imino-2,3-dihydro-1,3-oxazol-3-yl)methyl]-N-{2-[3-(trifluoromethyl)phenyl]propan-2-yl}-1H-1,3-benzodiazol-2-amine] | > 6.00

— patent US11945811B2, “Potassium channel inhibitors” (ACESION PHARMA APS, priority 2021, dated 2024)
